The results in this text go back to US20210284668A1, “GOLD (I)-PHOSPHINE 1,2,3-TRIAZOLE DERIVATIVES WITH ANTIBIOTIC PROPERTIES” (Centre National de la Recherche Scientifique, priority 2018, published 2021).

Where “and” joins values, the source holds several entries; their conditions need not be identical. Identical values can stand only once. Some results are limits rather than exact numbers.

The subject of experiment [1] is E. faecium AUS0004. As to the kind of experiment: MIC by microdilution, E. faecium AUS0004. Particulars: E. faecium AUS0004 (VanB positive, glycopeptide resistant), in duplicate. Type of experiment: cell-based, Enterococcus faecium. As for the experimental part: (§1) The antibacterial profile of each derivative was evaluated by the standard microdilution method for susceptibility testing on 16 different strains, following the guidelines of CLSI. The selected panel included: • S. aureus ATCC25923 (MecA negative, wild-type) • S. aureus ATCC29213 (MecA negative, wild-type) • S. aureus ATCC700699 (MecA positive, glycopeptide resistant) • S. aureus ST20131365 (MecA positive, glycopeptide resistant) • S. epidermidis ATCC14990 (MecA negative, wild-type) • S. epidermidis ATCC35984 (MecA positive) • S. epidermidis ST20140436 (MecA positive, glycopeptide resistant) • S. epidermidis ST20150446 (MecA positive, glycopeptide resistant) • E. faecalis JH2-2 (wild-type) • E. faecalis UCN41 (VanA positive, glycopeptide resistant) • E. faecalis V583 (VanB positive, glycopeptide resistant) • E. faecium ATCC19434T (wild-type) • E. faecium BM4147 (VanA positive, glycopeptide resistant) • E. faecium AUS0004 (VanB positive, glycopeptide resistant) • E. coli ATCC25922 (wild-type) • Clostridium difficile ATCC9689 (wild-type)
(§2) Both series issued from the SAR study were evaluated for their antibacterial activity on a panel of characterized strains obtained from the French National Reference Centers for Staphylococci (Lyon, Pr. Fréderique Laurent) and for Enterococci (Caen, Pr. Vincent Cattoir), respectively. As shown in the following tables, both series contain very active compounds on multi-resistant Gram-positive bacteria (Minimal Inhibitory Concentrations lower than comparator antibiotic ampicillin). Furthermore, a very important antibacterial effect has been shown too on a strain of Clostridium difficile, a Gram-positive, spore-forming, bacillus responsible for post-antibiotic diarrhoae.
(§3) The antibacterial activity of test compounds was evaluated on a selected panel of Gram-positive (4 Staphylococcus aureus, 4 Staphylococcus epidermidis, 3 Enterococcus faecalis, 3 Enterococcus faecium, 1 Clostridium difficile) and Gram-negative strains (1 Escherichia coli, 1 Klebsiella pneumoniae, 1 Pseudomonas aeruginosa, 1 Acinetacter baumannii) with known features of antibiotic resistance (from wild-type susceptibility to multi-drug resistance). The Minimal Inhibitory Concentration (MIC) of test compounds was determined in duplicate by the microdilution method in 96-well microplates with a final volume of 100 μL per well and Mueller-Hinton broth as the growth medium, as recommended by the CLSI (Clinical and Laboratory Standards Institute, document Mo7-A10, USA).

Experiment [2] concerns E. faecalis UCN41. The experiment is described as follows: MIC by microdilution, E. faecalis UCN41. Set-up: unit not given here. In kind it is cell-based, Enterococcus faecalis. To be noted: E. faecalis UCN41 (VanA positive, glycopeptide resistant), in duplicate. The method, then:
as §1, §2, §3

The subject of experiment [3] is S. epidermidis ATCC35984. The experiment is described as follows: MIC by microdilution, S. epidermidis ATCC35984. Type of experiment: cell-based, Staphylococcus epidermidis. To be noted: S. epidermidis ATCC35984 (MecA positive), in duplicate. As for the experimental part: as §1, §2, §3
Experiment [4] relates to E. faecium ATCC19434T. As to the kind of experiment: MIC by microdilution, E. faecium ATCC19434T. Set-up: unit not given here. Particulars: E. faecium ATCC19434T (wild-type), in duplicate. Type of experiment: cell-based, Enterococcus faecium. The method, then: as §1, §2, §3
For experiment [5], the system named is S. epidermidis ST20150446. The experiment is described as follows: MIC by microdilution, S. epidermidis ST20150446. In kind it is cell-based, Staphylococcus epidermidis. To be noted: S. epidermidis ST20150446 (MecA positive, glycopeptide resistant), in duplicate. The method, then: as §1, §2, §3
Experiment [6] concerns panel of Gram-positive and Gram-negative strains. As to the kind of experiment: Antibacterial profile on the selected panel of strains. Type of experiment: cell-based. Particulars: summary of Tables 1-12. The method, then: as §1, §2, §3
The test system of experiment [7] is E. faecium BM4147. As to the kind of experiment: MIC by microdilution, E. faecium BM4147. In kind it is cell-based, Enterococcus faecium. Set-up: unit not given here. Particulars: E. faecium BM4147 (VanA positive, glycopeptide resistant), in duplicate. The method, then: as §1, §2, §3
The test system of experiment [8] is S. epidermidis ST20140436. As to the kind of experiment: MIC by microdilution, S. epidermidis ST20140436. Particulars: S. epidermidis ST20140436 (MecA positive, glycopeptide resistant), in duplicate. Type of experiment: cell-based, Staphylococcus epidermidis. The method, then:
as §1, §2, §3

The subject of experiment [9] is E. coli ATCC25922. As to the kind of experiment: MIC by microdilution, E. coli ATCC25922. Type of experiment: cell-based, Escherichia coli. To be noted: E. coli ATCC25922 (wild-type), in duplicate. As for the experimental part:
as §1, §2, §3

Experiment [10] relates to S. epidermidis ATCC14990. The experiment is described as follows: MIC by microdilution, S. epidermidis ATCC14990. In kind it is cell-based, Staphylococcus epidermidis. Particulars: S. epidermidis ATCC14990 (MecA negative, wild-type), in duplicate. As for the experimental part:
as §1, §2, §3

Experiment [11] relates to Clostridium difficile ATCC700057. As to the kind of experiment: MIC by microdilution, Clostridium difficile. Type of experiment: cell-based. To be noted: strain ATCC70057 [sic] (Tables 1-2) / ATCC700057 (Tables 3-10), in duplicate.
For experiment [12], the system named is E. faecalis JH2-2. As to the kind of experiment: MIC by microdilution, E. faecalis JH2-2. Details: unit not given here. Particulars: E. faecalis JH2-2 (wild-type), in duplicate. Type of experiment: cell-based, Enterococcus faecalis. The method, then:
as §1, §2, §3

Experiment [13] has as its system S. aureus ST20131365. As to the kind of experiment: MIC by microdilution, S. aureus ST20131365. Particulars: S. aureus ST20131365 (MecA positive, glycopeptide resistant), in duplicate. In kind it is cell-based, Staphylococcus aureus. As for the experimental part: as §1, §2, §3
Experiment [14] has as its system S. aureus ATCC700699. The experiment is described as follows: MIC by microdilution, S. aureus ATCC700699. Type of experiment: cell-based, Staphylococcus aureus. Set-up: unit not given here. To be noted: S. aureus ATCC700699 (MecA positive, glycopeptide resistant), in duplicate. The method, then:
as §1, §2, §3

In experiment [15] the test system is E. faecalis V583. As to the kind of experiment: MIC by microdilution, E. faecalis V583. In kind it is cell-based, Enterococcus faecalis. Particulars: E. faecalis V583 (VanB positive, glycopeptide resistant), in duplicate. As for the experimental part:
as §1, §2, §3

Experiment [16] concerns S. aureus ATCC25923. As to the kind of experiment: MIC by microdilution, S. aureus ATCC25923. In kind it is cell-based, Staphylococcus aureus. To be noted: S. aureus ATCC25923 (MecA negative, wild-type), Mueller-Hinton broth, in duplicate. The method, then: as §1, §2, §3
The test system of experiment [17] is S. aureus ATCC29213. The experiment is described as follows: MIC by microdilution, S. aureus ATCC29213. In kind it is cell-based, Staphylococcus aureus. To be noted: S. aureus ATCC29213 (MecA negative, wild-type), Mueller-Hinton broth, in duplicate. As for the experimental part:
as §1, §2, §3

As for `CC[P+](CC)(CC)[Au-][c]1nn[nH]c1-c1cccc(C(=O)NC(C(=O)NC2C(=O)N3C2SC(C)(C)C3C(=O)O)c2ccccc2)c1` (stereo not drawn) [TMB12], the “Minimal Inhibitory Concentration (MIC)” value in experiment [1] is 0.5; in [2], 0.5 and 1; in experiment [3], at most 0.06; in [4], 0.5; in [5], at most 0.06; in experiment [7], 1. Besides, the “Minimal Inhibitory Concentration (MIC)” value in [8] is reported as at most 0.06; in experiment [9], above 8; in experiment [10], at most 0.06; in [11] it was at most 0.06; in experiment [12] it was 0.5; in experiment [13], 0.5. In addition, the “Minimal Inhibitory Concentration (MIC)” value in experiment [14] was 0.125 and 0.25; in experiment [15], 1. The “antimicrobial / antibacterial activity (in words)” value in [6] is “have antimicrobial activity”.

For the compound `CC[P+](CC)(CC)[Au-][c]1nn[nH]c1-c1cccc(C(=O)NC(C(=O)O)c2ccccc2)c1` (stereo not drawn) [TMB20], the “Minimal Inhibitory Concentration (MIC)” value in experiment [1] is 0.25; in experiment [2] it was 0.25; in experiment [3], at most 0.06; in [4] it was 0.25; in [7], 0.25 and 0.5; in [8], at most 0.06. Moreover, the “Minimal Inhibitory Concentration (MIC)” value is on record as above 8 in experiment [9]; at most 0.06 in experiment [10]; at most 0.06 in [11]; 0.25 in [12]; 0.125 in experiment [13]; 0.125 in experiment [14]. Besides, the “Minimal Inhibitory Concentration (MIC)” value in [16] is 0.125; in experiment [15], 0.25 and 0.5. Moreover, in experiment [6], the “antimicrobial / antibacterial activity (in words)” value was “have antimicrobial activity”.

With `CC[P+](CC)(CC)[Au-][c]1nn[nH]c1CCC(=O)NC(C(=O)O)c1ccccc1` (stereo not drawn) [TMB21], the “Minimal Inhibitory Concentration (MIC)” value in [1] was 0.25; in [2] it was 0.25; in [3] it was at most 0.06; in [4], 0.25; in experiment [5] it was at most 0.06; in experiment [7], 0.25 and 0.5. The “Minimal Inhibitory Concentration (MIC)” value in experiment [8] is reported as at most 0.06; in experiment [9] it was above 8; in experiment [10] it was at most 0.06; in experiment [11] it was at most 0.06; in [12], 0.25; in experiment [13] it was 0.125. In addition, the “Minimal Inhibitory Concentration (MIC)” value was 0.125 in experiment [14]; 0.25 and 0.5 in experiment [15]. Moreover, the “antimicrobial / antibacterial activity (in words)” value in experiment [6] is reported as “have antimicrobial activity”.

On to `CC[P+](CC)(CC)[Au-][c]1nn[nH]c1CN1CCOCC1` [TMB32], for which the “Minimal Inhibitory Concentration (MIC)” value is 0.25 in experiment [1]; 0.25 in experiment [2]; at most 0.06 in experiment [3]; 0.25 in [4]; 0.125 and 0.25 in experiment [5]; 0.25 in experiment [7]. Besides, the “Minimal Inhibitory Concentration (MIC)” value in [9] is above 8; in [10], at most 0.06; in experiment [11], at most 0.06; in experiment [12], 0.125; in [13], 0.125; in [14], 0.125 and 0.25. Besides, in experiment [15], the “Minimal Inhibitory Concentration (MIC)” value is on record as 0.25. Further, the “antimicrobial / antibacterial activity (in words)” value in experiment [6] is “have antimicrobial activity”.

Regarding `CC[P+](CC)(CC)[Au-][c]1nn[nH]c1CCS(N)(=O)=O` [TMB36], the “Minimal Inhibitory Concentration (MIC)” value was 0.25 in experiment [1]; 0.25 in experiment [2]; at most 0.06 in experiment [3]; 0.25 in experiment [4]; at most 0.06 in experiment [5]; 0.5 in experiment [7]. Moreover, the “Minimal Inhibitory Concentration (MIC)” value in [8] is listed as at most 0.06; in [9], above 8; in [10] it was at most 0.06; in experiment [11], at most 0.06; in [12], 0.25; in experiment [14], 0.125. For the same compound, the figures for the “Minimal Inhibitory Concentration (MIC)” value in experiment [16] and in [15] were at most 0.06 and 0.5, respectively. The “antimicrobial / antibacterial activity (in words)” value in experiment [6] is given as “have antimicrobial activity”.

As to `CC[P+](CC)(CC)[Au-][c]1nn[nH]c1-c1ccc(C(=O)O)cn1` [TMB39], the “Minimal Inhibitory Concentration (MIC)” value in experiment [17] is at most 0.06; in experiment [1] it was 0.5; in experiment [2], 0.25; in experiment [3], at most 0.06; in [4] it was 0.125; in experiment [5], at most 0.06. In addition, the “Minimal Inhibitory Concentration (MIC)” value in experiment [7] is 0.125; in experiment [8], at most 0.06; in [10] it was at most 0.06; in experiment [11], 0.25 and 0.5; in [12] it was 0.25; in experiment [13] it was at most 0.06. In addition, the “Minimal Inhibitory Concentration (MIC)” value is recorded as at most 0.06 in experiment [14], at most 0.06 in [16] and 0.25 in experiment [15]. In addition, the “antimicrobial / antibacterial activity (in words)” value in [6] is “have antimicrobial activity”.
